Source: patent US20090118194A1, “Measurement of melanocortin peptides and uses thereof” (Auckland UniServices Limited, priority 2002, published 2009)

Experiments:
hypothalamic proteins = experiment: Hypothalamic proteins after subcutaneous injection of new-born rats for 14 days; type: in vivo, rat; details: hypothalamus, s.c. for 14 days
Procedure: Tables 3 and 4 represent data from a neonatal study, where the two MSH peptides were injected subcutaneously into new-born rats for 14 days, and the changes in hypothalamic proteins assessed with the same method as the above study.
(§1) Adult female Wistar rats were housed in plastic cages and kept on a 12-h dark/light cycle. Animals received tap water and rat pellets ad libitum and were mated with males of the same strain. Each litter of new-born Wistar rats was culled to 9 pups per mother.
(§2) PBS or freshly prepared peptide solutions made up freshly in PBS containing 0.1% BSA were injected subcutaneously once per day in a volume of 40 μl for 14 days. Animals were injected on day 14 and 1 h later they were euthanised using sodium pentobarbital.

neonatal rats = experiment: Body and organ weights of neonatal rats after subcutaneous injection; type: in vivo, rat; details: s.c. 0.3 μg/g body weight/day; for body weight change (growth) over 14 days vs PBS: first 14 days of life
Procedure: as §1, §2
Rats were weighed at birth and then every 2 days prior to injection of peptides. Body weights were recorded on day 14 before injection and again when they were euthanised. The following organs were dissected and weighed: brain, heart, kidney, liver, lung, spleen.
Liner relationships between organ weights and body weights was tested using regression analysis of the organ weights measured against final body weight on day 14. There were significant linear relationships between organ weights and body weights for the following tissues: brain, spleen, heart, kidney and liver. There was no significant regression between lung weight and body weight. For those organs where their weight was linearly correlated to body weight, treatment effects on organ weight changes were analysed using ANCOVA with body weight as the co-variate.
Differences in body weight were analysed using a General Linear Model with repeated measures. Significance was assumed at the P<0.05 level.

3T3 L1 adipocytes = experiment: Triglyceride release from 3T3 L1 adipocytes (peptide stimulation assay); type: cell-based, murine; details: 4 hours, 2 assays combined
Procedure: • 2.1 The objective of this study was to determine the effects of a-MSH and desacetyl a-MSH on leptin and triglyceride production in murine 3T3 L1 adipocytes. • 2.2 Pre-adipocytes were seeded in 6-well plates and 2 days post confluence (Day 2) were differentiated with […] indomethacin+5 ug/mL insulin (described in previous documents). • 2.3 On Day 13 adipocytes were stimulated with 4 doses each of a-MSH and desacetyl a-MSH (or no peptide added) for 4 hours. • 2.4 Medium was removed from the wells and leptin and triglyceride levels measured. • 2.5 Intracytoplasmic lipid accumulation was measured by staining with Oil red O.
• 4.1 Medium=a-MEM+0.5% BSA (100 mL a-MEM+0.5 g BSA) • 4.2 Doses of a-MSH and da-MSH (stocks in −80° C. freezer=1 ug/ul), using MW of a-MSH. • 1 M=1665 g/L=1665 mg/mL • 1 mM=1.665 mg/mL • 1 uM=1.665 ug/mL • 1.665 ug/mL=3.3 ug/2 mL in each well • 1/10 dilution of 1 ug/ul (stock)=0.1 ug/ul. 33 ul=3.3 ug. • Prepare 1/10 dilution of freezer stock (1 ug/ul) to make 0.1 ug/ul, using a-MEM+0.5% BSA as diluent. • Make 3 serial dilutions of 1/10 to add 33 ul to each well in 6-well plate. • Doses are in triplicate wells, so require 3×33=99 ul for each dose.
• 5.1 Assay is performed on Day 14 after initiation of cell differentiation. […]

creatine kinase brain (p1079), level compared to control (hypothalamic proteins): 1.9 fold increase | creatine kinase brain (p1251), level compared to control (hypothalamic proteins): 2.1 fold increase | dihydropyrimidinase-like 2 (p537), level compared to control (hypothalamic proteins): 2.5 fold decrease | protein kinase C inhibitor (p1790), level compared to control (hypothalamic proteins): 1.8 fold increase | similar to phosphoglycerate kinase (p1363), level compared to control (hypothalamic proteins): 1.6 fold increase | triosephosphate isomerase (p1339), level compared to control (hypothalamic proteins): 2.1 fold increase
Sequence: SYSMEHFRWGKPV [desacetyl-α-MSH, non-acetylated form of α-MSH, obtained from Bachem]
ATP synthase, H+ transporting (p1379), level compared to control (hypothalamic proteins): 1.7 fold decrease | RIKEN cDNA0610011D08 (p1381), level compared to control (hypothalamic proteins): 3.3 fold increase | cofilin (p1854), level compared to control (hypothalamic proteins): 1.9 fold increase | heat shock protein (p1445), level compared to control (hypothalamic proteins): 2.0 fold increase | hypothetical protein XP_112457 (p1936), level compared to control (hypothalamic proteins): 2.2 fold increase | prohibitin homologue (p1458), level compared to control (hypothalamic proteins): 1.7 fold increase | similar to SH3-containing protein SH3GLB2 (p1557), level compared to control (hypothalamic proteins): 4.0 fold increase | spectrin fragment (p1362), level compared to control (hypothalamic proteins): 2.5 fold decrease | stathmin (p1610), level compared to control (hypothalamic proteins): 2.6 fold increase | stathmin P*Ser38 (p1588), level compared to control (hypothalamic proteins): 1.7 fold increase | tubulin beta (p1520), level compared to control (hypothalamic proteins): 1.6 fold increase | brain weight vs PBS (neonatal rats; 14 days): significantly decreased brain weight | kidney weight vs PBS (neonatal rats; 14 days): no significant effect on kidney weight | spleen weight vs PBS (neonatal rats; 14 days): significantly increased spleen weight | body weight change (growth) over 14 days vs PBS (neonatal rats): grew significantly slower | body weight change (growth) over 14 days vs PBS (neonatal rats; listed as Desacetyl-α-MSH): significantly slowed body weight change | body weight catch up compared to PBS treated rats (neonatal rats; from day 12): appeared to catch up on body weight from day 12 | TRIGLYCERIDE RESPONSE, MEAN (3T3 L1 adipocytes; 100 nM): 111.4 % OF CONTROL | TRIGLYCERIDE RESPONSE, MEAN (3T3 L1 adipocytes; 1000 nM): 110.0 % OF CONTROL
